The text below walks through data of patent US12606518B2, “Crystalline form of L-serine and process of preparing same” (ASTROGEN, INC., priority 2024, dated 2026).

Data set [1] in a line: Pharmacokinetic comparison after single oral administration. As to conditions: 400 mg/kg oral once.
The nature of data set [2]: Thermal stability test (storage at 40° C./75% RH for 8 weeks; HPLC content, visual discoloration, XRD). It is filed as physicochemical. As to conditions: for L-serine content from 0 week: before storage at 40° C./75% RH; for L-serine content from 0 week / L-serine content after 8 weeks: HPLC; for L-serine content after 8 weeks / Change in Crystal / Discoloration: after 8 weeks at 40° C./75% RH; for Change in Crystal: XRD; for Discoloration: visual. As to the method:
After 8 weeks, each sample was taken out and the content was analyzed using high-performance liquid chromatography (HPLC), and the presence of discoloration was visually confirmed as shown in FIG. 13. High-Performance Liquid Chromatography Conditions • Equipment: Waters Alliance e2695 • Column: […] 100, 150 mm×4.6 mm×5 μm • Column temperature: 30° C. • Flow rate: 1.0 mL/min • Detection: 210 nm, UV • Injection volume: 10 μL • Total analysis time: 40 mins • Mobile phase: […]

The nature of data set [3]: Hygroscopicity test by dynamic vapor absorption (DVS). As to conditions: 25° C., 2-98% relative humidity.
The nature of data set [4]: Saturated solubility in purified water. It is filed as physicochemical. Particulars: on first addition of purified water. As to the method: Then, 5 mL (or 10 mL) of this solution is taken, and placed into a 50 mL volumetric flask, purified water is filled to the mark and used as a test solution. • f. The test solution is analyzed according to HPLC operating conditions for the test of L-serine content.
b. The resulting solution is left at room temperature for 5 minutes and then vigorously mixed using a vortexer for 30 seconds.
c. The process b is repeated 6 times (about 30 minutes) and then the resultant is left at room temperature until the floating materials are settled.
d. The supernatant of the solution is placed into a 2.0 mL eppendorf tube and is subject to perform centrifugation using a centrifuge at 23° C. and 4,000 rpm for 20 minutes.
e. 1 mL of the supernatant of the solution is taken and placed into a 100 mL volumetric flask, and purified water is filled to the mark. Then, 5 mL (or 10 mL) of this solution is taken and placed into a 50 mL volumetric flask, purified water is filled to the mark, and used as a test solution.
f. The test solution is analyzed according to HPLC operating conditions for the test of L-serine content.

Where [5] appears, read: mice, n=5, after baseline correction, 400 mg/kg.

A word on the Cmax: it is the highest concentration seen after dosing. Broadly, the MRT inf is a mean duration of stay, worked out from the concentration-time curve. As usually defined, the Tmax is the time from dosing to the highest level. What is called half-life is the time in which the quantity being followed falls by half. For the compound `N[C@@H](CO)C(=O)O` [Comparative Example 1, L-serine], in data set [1] (setting [5]), the AUC0-12 is 100.53 ± 20.15 µg·h/mL, the AUC0-inf came to 121.45 ± 17.20 µg·h/mL and the CI/F is 3.35 ± 0.43 (mg/kg)/(μg/mL)/h. Further, the Cmax in data set [1] (mouse, blood, po, 400 mg/kg, Cmax, mice, n=5, after baseline correction) is 67.5 ± 25.9 µg/mL. Further, in data set [1] (mouse, blood, po, 400 mg/kg, MRT0-inf, mice, n=5, after baseline correction), the MRT inf was 5.11 ± 0.8 h. In addition, the Tmax in data set [1] (mouse, blood, po, 400 mg/kg, Tmax, mice, n=5, after baseline correction) was 0.25 h. The compound further gave a half-life in data set [1] (mouse, blood, po, 400 mg/kg, t1/2, mice, n=5, after baseline correction) of 4.15 ± 0.99 h. Also, in data set [2], the “L-serine content from 0 week” value came to 99.0% →, the “L-serine content after 8 weeks” value stood at 90.4%, the “Change in Crystal” value is listed as “change in part” and the Discoloration entry is given as “change to off-”. Moreover, the “relative humidity at which moisture absorption started” value (“relative humidity” for short) in data set [3] came out at 40%.
With `N[C@@H](CO)C(=O)O` [Comparative Example 2, L-serine], in data set [1] (setting [5]), the AUC0-12 amounted to 165.81 ± 40.99 µg·h/mL, the AUC0-inf stood at 177.36 ± 39.9 µg·h/mL, the CI/F is on record as 3.19 ± 0.67 (mg/kg)/(μg/mL)/h and the Cmax was determined as 77.69 ± 8.49 µg/mL. Moreover, in data set [1] (setting [5]), the MRT0-inf is on record as 3.44 ± 1.49 h, the Tmax turned out to be 0.50 h and the t1/2 was 2.56 ± 0.76 h. In data set [2], the “L-serine content from 0 week” value turned out to be 99.1% →, the “L-serine content after 8 weeks” value amounted to 93.7%, the “Change in Crystal” value is listed as “retained” and the Discoloration result is reported as “change to off-”. Further, the “relative humidity” value in data set [3] is listed as “around 70%”.
With `N[C@@H](CO)C(=O)O` [Example 3, L-serine], in data set [1] (mice), the “difference in maximum blood concentration (Cmax) compared to amorphous form and type A crystalline form” value is recorded as “no significant difference”; the “increase of AUC0-12 compared to amorphous form and type A crystalline form of L-serine” value was no less than 2 times. In addition, in data set [1] (setting [5]), the AUC0-12 stood at 248.89 ± 37.34 µg·h/mL, the AUC0-inf came out at 296.22 ± 69.63 µg·h/mL, the CI/F is listed as 2.11 ± 0.49 (mg/kg)/(μg/mL)/h and the Cmax worked out at 75.48 ± 10.70 µg/mL. In data set [1] (setting [5]), the MRT0-inf stood at 5.29 ± 2.10 h, the Tmax is reported as 0.50 h and the t1/2 came out at 3.56 ± 1.36 h. For the same compound, in data set [4], the “Remark (hardening phenomenon during dissolution)” value was “The procedure went smoothly”. Besides, in data set [2], the “L-serine content from 0 week” value is 99.3% →, the “L-serine content after 8 weeks” value came out at 99.2%, the “Change in Crystal” value was “retained” and the Discoloration entry is recorded as “no change”. Moreover, the “relative humidity” value in data set [3] is listed as “around 80%”.
